Article PMC10492782, “Exploiting the aggregation propensity of beta-lactamases to design inhibitors that induce enzyme misfolding” (Nature Communications, 2023)

Assays:
[1] = Tolerability, dose escalation; assay type: in vivo, female C57BL/6JAX mice; settings: mice; for Tox beheviour Sub: subcutaneous
Experimental: We also performed a tolerability study using a dose escalation method by administering the peptide at 2, 5, 10, 15, and 20 mg/kg via different parenteral routes: intravenous (IV), intraperitoneal (IP), and subcutaneous (SC) in female C57BL/6JAX mice, aged 8–10 weeks (Suppl Table 4). […] Vehicle alone (0.9% NaCl) was also administered (IV). After 24 h the animals were sacrificed and the bacterial load in the bladder, kidney, and ureter was quantified by determining the number of colony-forming units (CFU) per mL of tissue extract (Fig. 7E–G). […]

[2] = test system: primary Human Umbilical Vein Endothelial Cells (HUVEC); settings: 24 h, 400 to 12.5 µg/mL
Experimental: The Cell Titer Blue assay was performed to evaluate the cell viability according to the instructions of the manufacturer (Promega, USA). The peptide treatments were done in DMEM medium without serum. Briefly, cells were seeded to approximately 20,000 mammalian cells per well in a 96-well flat-bottom plate (BD Biosciences 353075) and incubated at 37 °C with 5% CO2 and 90% humidity. Peptides were diluted in cell medium, and cells were treated for 24 h. 20 μL of the CellTiter Blue reagent was added to each well and the plate was incubated for 1 h at 37 °C. The fluorescence was measured at 590 nm by exciting at 560 nm with a ClarioStar plate reader (BMG Labtech, Germany).

[3] = test system: E. coli SHV11; test: Checkerboard assay (FICI); assay type: cell-based, Escherichia coli; settings: strain containing SHV-11, FICI below 0.5 = synergy
Experimental: To quantify the synergy between these four peptides and penicillin G, we performed a so-called checkerboard assay, which allows us to compare the activity of two test compounds co-incubated (here peptide and a beta-lactam antibiotic), to their individual activities in isolation. […] We evaluated the synergy of the peptides with penicillin G in clinical E. coli isolates carrying the TEM (Fig. 3D) or SHV enzymes (Fig. 3E). […] The list of strains included some that harbored only TEM or SHV, but others contained additional Ambler Class A (CTX-M or OXA) or Class B (VIM and NDM) beta-lactamases.
For the analysis of synergy between the peptides and other antibiotics, a checkerboard assay was performed. Based on the MICs of the selected peptides, a checkerboard assay was designed to define their FICIs (Fractional Inhibitory Concentration Index) in combinations against different clinical isolates[53],[54]. Briefly, a total volume of 100 μL of Mueller–Hinton broth was distributed into each well of the 96-well plates. […] FICI is calculated as the sum of the individual fractional inhibitory concentrations (FICs) for each drug (where MIC A and MIC B denote the MIC of each drug alone, and MIC AA+B and MIC BA+B denote the concentrations of A and B in the drug combination). […]

[4] = molecular target: T1, TEM beta-lactamase (Escherichia coli, UniProt P62593); test: β-lactamase activity assay (nitrocefin); assay type: biochemical; settings: chromogenic substrate nitrocefin, Suppl Fig. 8
T1 construct: His-tag (N); TEV cleavage site (N); made in house; host or cells: E. coli BL21 (DE3)
Experimental: The beta-lactamase assay procedure is based on the hydrolysis of the substrate Nitrocefin, a chromogenic cephalosporin, which produces a colored product (detectable at OD = 490 nm) that is directly proportional to the quantity of beta-lactamase activity. This experiment was carried out in 96-well black polystyrene flat-bottom microtiter plates (BD Biosciences). In brief, 50 μl of different concentrations of peptides or tazobactam in PBS were added to each well, followed by 50 μl of beta-lactamase protein at a final concentration of 12 ng. The plate was incubated at 37 °C for 1 h. The control heat was heated for 1 h at 95 degrees Celsius. Each well received 5 μl of Nitrocefin at a stock concentration of 0.5 mg/mL Nitrocefin. The hydrolyzed Nitrocefin was identified by absorption at 490 nm, which is proportional to the amount of beta-lactamase activity.

[5] = Thioflavin-T aggregation kinetics and electron microscopy of peptide; assay type: physicochemical; settings: 50 μM peptide with polyphosphate; EM after 24 h incubation at RT
Experimental: Fig. 4 Aggregation kinetics of TEM and SHV proteins and peptides. A Measurements of the hydrodynamic radius by Dynamic Light Scattering of 50 μM TEM3.2 in buffer alone, or in the presence of LPS or polyphosphate (PolyP). […] C Transmission Electron Micrograph of 50 μM TEM 3.2 incubated for 24 h in the same buffer as A with polyP, negatively stained with 2% (w/v) uranyl acetate. A single representative image is shown. […] Three replicates are shown for each condition. E Aggregation kinetics using pFTAA fluorescence emission of recombinantly purified TEM-1, in the presence of vehicle, or TEM 3.2 peptin, as well as peptin-only control. F Similar as in E, but using an off-target Pept-In, based on an APR sequence of beta-galactosidase. G Similar to E, but now using a previously published off-target Pept-In, based on an APR of HcaB. The plots are the results of a single experiment, all replicates are shown. Source data are provided as a Source Data file.
A DynaPro DLS plate reader instrument (Wyatt, Santa Barbara, CA, USA) equipped with an 830 nm laser source was used to determine the hydrodynamic radius (RH) of the peptide particles. […] The autocorrelation of scattered light intensity at a 32° angle was recorded for 5 s and averaged over 20 recordings to obtain a single data point. […]

T1 sequence (P62593 24-286 limits assumed): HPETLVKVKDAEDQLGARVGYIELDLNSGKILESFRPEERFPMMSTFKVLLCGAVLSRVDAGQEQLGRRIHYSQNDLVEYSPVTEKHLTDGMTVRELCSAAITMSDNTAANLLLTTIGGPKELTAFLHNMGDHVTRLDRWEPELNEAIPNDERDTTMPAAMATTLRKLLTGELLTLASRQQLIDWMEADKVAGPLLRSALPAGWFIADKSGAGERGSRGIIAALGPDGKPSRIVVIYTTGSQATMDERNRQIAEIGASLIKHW

Ac-RLTAFLHNRRPRLTAFLRQRR-NH2 [TEM3.2]
Tox beheviour IP ([1]; 2 mg/Kg): no sign of tox
Tox beheviour IV ([1]; 2 mg/Kg): no sign of tox
Tox beheviour Sub ([1]; 2 mg/Kg): no sign of tox
Tox beheviour IP ([1]; 5 mg/Kg): no sign of tox
Tox beheviour IV ([1]; 5 mg/Kg): no sign of tox
Tox beheviour Sub ([1]; 5 mg/Kg): no sign of tox
Tox beheviour IP ([1]; 10 mg/Kg): no sign of tox
Tox beheviour IV ([1]; 10 mg/Kg): no sign of tox
Tox beheviour Sub ([1]; 10 mg/Kg): no sign of tox
Tox beheviour IP ([1]; 15 mg/Kg): no sign of tox
Tox beheviour IV ([1]; 15 mg/Kg): no sign of tox
Tox beheviour Sub ([1]; 15 mg/Kg): no sign of tox
Tox beheviour IP ([1]; 20 mg/Kg): no sign of tox
Tox beheviour IV ([1]; 20 mg/Kg): no sign of tox
Tox beheviour Sub ([1]; 20 mg/Kg): no sign of tox
cytotoxicity, Cell Titer Blue (in words) [2]: not cytotoxic
synergy with penicillin G (in words) [3]: showed synergy in both strains
effect on beta-lactamase enzymatic function (in words) [4]: loss of function of the enzymatic function of the beta-lactamase
Thioflavin T binding and Transmission Electron Microscopy (in words) [5]: amyloid-like aggregation in the presence of polyphosphate
